Laboratory results from ChEMBL document CHEMBL1201862, “PubChem BioAssay data set” (2004).
The source made the active and inactive calls.

What was measured:
[1] = HEK293 cell cytotoxicity, dose response, cytotoxicity control, cherry-picks, set 5 (AID 1053117); type: functional, cell-based
[2] = human group III sPLA2 inhibitors, dose response, biochemical, QFRET, IC50 (AID 743457);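 also: green fluorescence rise as the enzyme cleaves BODIPY PC-A2 in liposomes; potency for inhibition of the enzyme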
[3] = Late stage assay provider results from the probe development effort to identify inhibitors of the Plasmodium falciparum M18 Aspartyl Aminopeptidase (M18AAP): radiolabel-based cell-based dose response assay to identify compounds that inhibit P. falciparum growth in RBCs, Set 2..; type: functional
[4] = HEK293T cytotoxicity, dose response, cytotoxicity control for miR-122 modulator project, cell-based, activator set, cherry-pick (AID 720690); type: functional;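 also: HEK293T human cells scored for general mammalian cytotoxicity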
[5] = target: Endoplasmic reticulum aminopeptidase 1 (Homo sapiens, UniProt Q9NZ08); assay: ERAP1 aminopeptidase inhibitors, dose response, biochemical, cherry-pick, set 2, plate reader (AID 743314)
[6] = target: Major prion protein (Homo sapiens, UniProt P04156); type: functional, cell-based
[7] = cells
[8] = target: Potassium channel subfamily K member 3 (Homo sapiens, UniProt O14649); assay: TASK1 (KCNK3) potassium channel inhibitors, SAR follow-up, CHO cells, FluxOR thallium flux (AID 652212); type: functional
[9] = target: Potassium channel subfamily K member 9 (Homo sapiens, UniProt Q9NPC2); assay: TASK3 (KCNK9) channel inhibitors, thallium flux, SAR follow-up, selectivity assay for TASK1 inhibitor project, cell-based, FluxOR thallium flux, concentration-response (AID 652211); type: functional;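 also: potency is for inhibitors of the channel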
[10] = target: fMet-Leu-Phe receptor (Homo sapiens, UniProt P21462); assay: FPR ligands, dose response (AID 519); type: functional
[11] = BHK-21 cell cytotoxicity, cytotoxicity control for flavivirus guanylyltransferase probe project, secondary screen (AID 624078); type: functional
[12] = target: T1, Hexokinase HKDC1 (Homo sapiens, UniProt Q2TB90); assay: SAR analysis of small molecule inhibitors of hexokinase domain containing I (HKDC1). [Related pubchem assays (depositor defined):AID493160, AID493190]; type: functional
T1 sequence (Q2TB90 whole entry): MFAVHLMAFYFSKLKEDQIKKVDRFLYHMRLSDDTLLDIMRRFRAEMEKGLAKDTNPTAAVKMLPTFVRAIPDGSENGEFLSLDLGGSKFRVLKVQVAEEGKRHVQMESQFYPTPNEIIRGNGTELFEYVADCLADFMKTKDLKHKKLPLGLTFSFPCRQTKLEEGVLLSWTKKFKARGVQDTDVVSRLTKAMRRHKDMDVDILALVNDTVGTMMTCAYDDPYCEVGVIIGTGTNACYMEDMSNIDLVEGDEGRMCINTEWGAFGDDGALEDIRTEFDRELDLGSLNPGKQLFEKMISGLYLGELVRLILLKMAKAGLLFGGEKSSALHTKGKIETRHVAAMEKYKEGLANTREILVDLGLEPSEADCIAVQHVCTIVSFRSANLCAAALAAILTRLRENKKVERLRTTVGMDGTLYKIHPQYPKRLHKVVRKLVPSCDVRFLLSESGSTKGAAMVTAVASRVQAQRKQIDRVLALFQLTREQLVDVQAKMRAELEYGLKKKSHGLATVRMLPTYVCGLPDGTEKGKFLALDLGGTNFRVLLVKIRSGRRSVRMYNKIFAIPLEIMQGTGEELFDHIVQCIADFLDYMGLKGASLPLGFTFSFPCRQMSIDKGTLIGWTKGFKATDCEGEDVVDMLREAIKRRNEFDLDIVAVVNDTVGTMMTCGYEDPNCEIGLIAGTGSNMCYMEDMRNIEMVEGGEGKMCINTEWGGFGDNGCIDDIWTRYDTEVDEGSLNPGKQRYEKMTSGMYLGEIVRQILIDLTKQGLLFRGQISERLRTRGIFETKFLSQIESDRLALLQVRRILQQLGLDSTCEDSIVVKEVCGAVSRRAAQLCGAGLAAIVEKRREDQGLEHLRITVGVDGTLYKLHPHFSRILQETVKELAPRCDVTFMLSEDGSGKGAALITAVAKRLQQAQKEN

[13] = target: T2, Hexokinase-1 (Homo sapiens, UniProt P19367); assay: SAR analysis of small molecule inhibitors of hexokinase domain containing I (HKDC1) in the hexokinase 1 selectivity assay. [Related pubchem assays (depositor defined):AID493160, AID493190]; type: functional
T2 sequence (P19367 whole entry): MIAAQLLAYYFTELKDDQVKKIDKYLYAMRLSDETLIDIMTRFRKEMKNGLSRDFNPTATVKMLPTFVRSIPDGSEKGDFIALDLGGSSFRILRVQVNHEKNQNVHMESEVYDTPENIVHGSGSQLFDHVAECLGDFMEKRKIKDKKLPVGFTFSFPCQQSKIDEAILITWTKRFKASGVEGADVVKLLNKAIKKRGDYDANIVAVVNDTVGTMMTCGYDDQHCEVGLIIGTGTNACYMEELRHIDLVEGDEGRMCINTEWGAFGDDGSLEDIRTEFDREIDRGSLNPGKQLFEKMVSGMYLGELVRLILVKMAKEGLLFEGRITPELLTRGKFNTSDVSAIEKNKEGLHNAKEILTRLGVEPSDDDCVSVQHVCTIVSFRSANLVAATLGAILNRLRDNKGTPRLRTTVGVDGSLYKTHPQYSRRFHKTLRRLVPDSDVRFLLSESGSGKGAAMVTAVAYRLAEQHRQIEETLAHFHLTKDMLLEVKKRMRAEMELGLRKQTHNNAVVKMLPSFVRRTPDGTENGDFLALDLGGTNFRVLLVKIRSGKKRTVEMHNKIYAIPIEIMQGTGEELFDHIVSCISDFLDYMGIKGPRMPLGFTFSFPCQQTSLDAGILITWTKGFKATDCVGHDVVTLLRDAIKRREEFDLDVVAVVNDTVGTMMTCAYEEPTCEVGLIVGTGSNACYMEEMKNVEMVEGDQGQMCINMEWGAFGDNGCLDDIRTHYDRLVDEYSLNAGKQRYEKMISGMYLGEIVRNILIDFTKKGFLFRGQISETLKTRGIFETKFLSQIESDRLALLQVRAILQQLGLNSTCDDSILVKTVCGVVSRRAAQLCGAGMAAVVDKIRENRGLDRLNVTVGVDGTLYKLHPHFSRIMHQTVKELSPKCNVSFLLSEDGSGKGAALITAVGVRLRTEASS

## Cc1cccc(NC(=O)c2ccc(S(=O)(=O)N3CCCCC3)cc2)n1
[1]
  AC50: > 52 µM (inactive)

## CCCCN=C(S)NNC(=O)c1csc(C)c1C
[2]
  IC50: > 122 µM (inactive)

## Oc1ccc(CCN2CCc3ccccc3C2)cc1O
[3]
  IC50: 7.9 µM (active)

## CN[C@H]1C[C@H]2c3[nH]c4ccc(-c5ccc(OC)cc5)cc4c3CCN2C(=O)[C@H]1[C@H](C)O
[4]
  AC50: 15.8 µM (active)

## COC(=O)[C@H]1[C@H](CO)[C@H]2Cn3c(ccc(-c4ccncc4)c3=O)[C@H]2N1Cc1ccccc1F
[5]
  AC50: 10.2 µM (active)

## Cc1cc(NC(=O)CCC(=O)N(c2ccccc2)C(C(=O)NC2CCCC2)c2cccs2)no1 (stereo not drawn)
[6]
  IC50: 16.2 µM (inactive)
[7]
  IC50: > 138 µM (inactive)

## Cc1cccc(C(=O)Nc2cccc(NC(=O)c3ccccc3OCC(C)C)c2)c1
[8]
  IC50: 0.206 µM (active)
[9]
  IC50: 3.39 µM (active)

## CCC(Sc1nc2c(c(=O)[nH]1)CCC2)C(=O)Nc1cccc(OC)c1 (stereo not drawn)
[10]
  Ki: 35.5 µM (inactive)

## Cc1ccc(S(=O)(=O)Nc2cc(SCC(=O)O)c(O)c3ccccc23)cc1
[11]
  CC50: 9.31 µM (active)
[12]
  IC50: 5.44 µM (active)
[13]
  IC50: 50.6 µM (inactive)
